Test results reported in paper PMC5428509, “Irreversible inhibition of BTK kinase by a novel highly selective inhibitor CHMFL-BTK-11 suppresses inflammatory response in rheumatoid arthritis model” (Scientific Reports, 2017).

Assays:
Assay in all cases: biochemical
Set-up in all cases: KinomeScan competition binding panel (DiscoveRx), percent of control at 1 uM
Settings in all cases: read-out: Percent Control
MRCKA = target: T1, MRCKA (Homo sapiens, UniProt Q5VT25)
T1 construct: gene CDC42BPA
Source text: (§1) In order to further confirm the binding mode, we then tested the compounds in the BTK wild-type (wt) and BTK C481S mutant with immunoblotting by looking at the BTK Y551 auto-phosphorylation. […] In addition, a covalent bond was preferred to form between the […] acrylamide and Cys-481 near the hinge binding area, which further confirmed its irreversible binding mode (Fig. 1d). We next investigated CHMFL-BTK-11′s selectivity profile in 456 kinases/mutants with KinomeScan^TM technology.

BRAF(V600E) = BRAF(V600E) (Homo sapiens, UniProt P15056, V600E)
Source text: as §1

IKK-beta = target: T2, IKK-beta (Homo sapiens, UniProt O14920)
T2 construct: gene IKBKB
Source text: as §1

DMPK2 = target: T3, DMPK2 (Homo sapiens, UniProt Q6DT37)
T3 construct: gene CDC42BPG
Source text: as §1

AAK1 = AAK1 (Homo sapiens, UniProt Q2M2I8)
Source text: as §1

NEK9 = NEK9 (Homo sapiens, UniProt Q8TD19)
Source text: as §1

PIK3CA(H1047L) = PIK3CA(H1047L) (Homo sapiens, UniProt P42336, H1047L)
Source text: as §1

CLK3 = CLK3 (Homo sapiens, UniProt P49761)
Source text: as §1

PCTK3 = target: T4, PCTK3 (Homo sapiens, UniProt Q07002)
T4 construct: gene CDK18
Source text: as §1

[1] = target: T5, ABL1(F317L)-phosphorylated (Homo sapiens, UniProt P00519, F317L)
T5 construct: phosphorylated
Source text: as §1

RIPK2 = RIPK2 (Homo sapiens, UniProt O43353)
Source text: as §1

SIK = target: T6, SIK (Homo sapiens, UniProt P57059)
T6 construct: gene SIK1
Source text: as §1

CSK = CSK (Homo sapiens, UniProt P41240)
Source text: as §1

PRKG1 = PRKG1 (Homo sapiens, UniProt Q13976)
Source text: as §1

EPHA7 = EPHA7 (Homo sapiens, UniProt Q15375)
Source text: as §1

EGFR(L747-T751del,Sins) = EGFR(L747-T751del,Sins) (Homo sapiens, UniProt P00533, DEL747-750/T751S)
Source text: as §1

ERK1 = target: T7, ERK1 (Homo sapiens, UniProt P27361)
T7 construct: gene MAPK3
Source text: as §1

DDR1 = DDR1 (Homo sapiens, UniProt Q08345)
Source text: as §1

PRKD3 = PRKD3 (Homo sapiens, UniProt O94806)
Source text: as §1

ACVR2A = ACVR2A (Homo sapiens, UniProt P27037)
Source text: as §1

RIOK2 = RIOK2 (Homo sapiens, UniProt Q9BVS4)
Source text: as §1

PRKCI = PRKCI (Homo sapiens, UniProt P41743)
Source text: as §1

PIK3CA = PIK3CA (Homo sapiens, UniProt P42336)
Source text: as §1

HIPK1 = HIPK1 (Homo sapiens, UniProt Q86Z02)
Source text: as §1

KIT(V559D,V654A) = KIT(V559D,V654A) (Homo sapiens, UniProt P10721, V559D/V654A)
Source text: as §1

Chain of DDR1 (Q08345 whole entry): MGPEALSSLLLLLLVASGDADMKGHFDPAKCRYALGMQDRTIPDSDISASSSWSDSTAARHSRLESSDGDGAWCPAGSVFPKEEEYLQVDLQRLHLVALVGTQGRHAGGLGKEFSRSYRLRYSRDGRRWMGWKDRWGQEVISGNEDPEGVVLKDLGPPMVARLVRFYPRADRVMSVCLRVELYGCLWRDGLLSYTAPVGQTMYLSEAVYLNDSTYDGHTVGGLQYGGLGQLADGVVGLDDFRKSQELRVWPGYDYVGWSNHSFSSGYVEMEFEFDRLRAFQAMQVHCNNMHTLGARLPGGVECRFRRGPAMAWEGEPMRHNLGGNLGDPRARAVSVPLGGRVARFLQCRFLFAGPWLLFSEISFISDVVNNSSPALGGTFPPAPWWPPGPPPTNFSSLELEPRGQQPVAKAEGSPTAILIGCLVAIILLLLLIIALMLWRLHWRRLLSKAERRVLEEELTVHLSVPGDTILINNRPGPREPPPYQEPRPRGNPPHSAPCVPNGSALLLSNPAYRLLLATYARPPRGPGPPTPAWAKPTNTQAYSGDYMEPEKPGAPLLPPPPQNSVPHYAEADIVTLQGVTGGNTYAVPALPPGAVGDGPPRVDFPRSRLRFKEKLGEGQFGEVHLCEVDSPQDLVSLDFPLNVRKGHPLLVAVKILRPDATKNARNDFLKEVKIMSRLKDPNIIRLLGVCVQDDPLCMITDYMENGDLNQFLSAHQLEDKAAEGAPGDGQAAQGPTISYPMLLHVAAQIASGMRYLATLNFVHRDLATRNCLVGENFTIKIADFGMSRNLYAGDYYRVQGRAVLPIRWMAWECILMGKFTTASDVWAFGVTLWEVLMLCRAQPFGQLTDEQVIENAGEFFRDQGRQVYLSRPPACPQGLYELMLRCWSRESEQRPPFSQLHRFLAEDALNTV
T5 sequence (P00519 whole entry F317L): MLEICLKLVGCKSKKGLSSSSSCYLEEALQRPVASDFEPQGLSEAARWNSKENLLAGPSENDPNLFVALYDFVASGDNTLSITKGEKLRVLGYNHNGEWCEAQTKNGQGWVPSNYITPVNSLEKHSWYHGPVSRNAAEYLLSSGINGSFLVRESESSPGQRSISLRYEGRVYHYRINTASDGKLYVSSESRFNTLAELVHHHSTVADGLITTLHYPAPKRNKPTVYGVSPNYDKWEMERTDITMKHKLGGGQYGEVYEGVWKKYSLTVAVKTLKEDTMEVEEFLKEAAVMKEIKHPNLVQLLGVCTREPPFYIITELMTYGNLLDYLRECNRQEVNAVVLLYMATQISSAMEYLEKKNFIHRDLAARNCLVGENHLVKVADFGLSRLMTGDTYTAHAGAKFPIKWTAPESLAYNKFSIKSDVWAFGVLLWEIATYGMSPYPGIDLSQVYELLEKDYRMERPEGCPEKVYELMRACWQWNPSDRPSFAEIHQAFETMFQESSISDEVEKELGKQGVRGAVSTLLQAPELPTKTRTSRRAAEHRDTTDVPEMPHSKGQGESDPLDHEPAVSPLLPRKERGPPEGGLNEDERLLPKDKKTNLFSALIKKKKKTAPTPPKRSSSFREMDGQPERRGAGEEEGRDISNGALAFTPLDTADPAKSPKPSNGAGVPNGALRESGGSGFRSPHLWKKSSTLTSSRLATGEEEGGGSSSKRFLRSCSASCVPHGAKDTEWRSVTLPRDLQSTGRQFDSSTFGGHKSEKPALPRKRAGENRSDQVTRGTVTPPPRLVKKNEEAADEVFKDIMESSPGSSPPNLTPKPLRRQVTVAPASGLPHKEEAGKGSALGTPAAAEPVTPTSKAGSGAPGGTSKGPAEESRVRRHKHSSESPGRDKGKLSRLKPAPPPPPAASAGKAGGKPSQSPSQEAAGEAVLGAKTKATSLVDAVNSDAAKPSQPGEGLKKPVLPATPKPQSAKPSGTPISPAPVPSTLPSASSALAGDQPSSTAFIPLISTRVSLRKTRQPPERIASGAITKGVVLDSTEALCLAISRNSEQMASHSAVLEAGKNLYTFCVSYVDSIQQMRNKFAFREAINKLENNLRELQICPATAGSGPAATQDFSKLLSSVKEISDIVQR
Chain of ACVR2A (P27037 whole entry): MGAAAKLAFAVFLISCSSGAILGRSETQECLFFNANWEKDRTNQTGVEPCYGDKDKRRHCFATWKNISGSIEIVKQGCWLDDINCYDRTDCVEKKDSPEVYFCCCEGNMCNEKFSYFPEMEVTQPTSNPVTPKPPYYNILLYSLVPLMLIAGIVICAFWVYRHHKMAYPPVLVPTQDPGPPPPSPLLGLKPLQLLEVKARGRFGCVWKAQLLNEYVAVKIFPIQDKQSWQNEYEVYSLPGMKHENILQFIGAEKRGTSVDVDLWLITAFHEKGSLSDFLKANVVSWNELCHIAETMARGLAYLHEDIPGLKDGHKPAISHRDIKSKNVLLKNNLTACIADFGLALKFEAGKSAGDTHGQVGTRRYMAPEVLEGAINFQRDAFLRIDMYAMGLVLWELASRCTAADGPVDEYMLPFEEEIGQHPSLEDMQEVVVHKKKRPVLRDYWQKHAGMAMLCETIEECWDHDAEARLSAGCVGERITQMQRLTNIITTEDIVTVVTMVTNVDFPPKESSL
Chain of CLK3 (P49761 whole entry): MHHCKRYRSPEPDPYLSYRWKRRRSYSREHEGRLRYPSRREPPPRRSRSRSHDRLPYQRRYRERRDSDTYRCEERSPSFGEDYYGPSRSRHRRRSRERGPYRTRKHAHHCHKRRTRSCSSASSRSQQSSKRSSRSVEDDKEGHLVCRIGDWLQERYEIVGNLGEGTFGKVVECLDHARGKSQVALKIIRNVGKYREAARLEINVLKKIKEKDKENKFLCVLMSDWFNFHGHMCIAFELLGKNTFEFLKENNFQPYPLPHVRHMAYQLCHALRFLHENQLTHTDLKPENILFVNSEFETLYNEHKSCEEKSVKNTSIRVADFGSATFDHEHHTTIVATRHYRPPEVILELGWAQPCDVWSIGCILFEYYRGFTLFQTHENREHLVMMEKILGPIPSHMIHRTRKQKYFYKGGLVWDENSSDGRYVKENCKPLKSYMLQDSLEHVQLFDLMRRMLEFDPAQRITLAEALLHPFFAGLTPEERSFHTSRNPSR
Chain of PIK3CA(H1047L) (P42336 whole entry H1047L): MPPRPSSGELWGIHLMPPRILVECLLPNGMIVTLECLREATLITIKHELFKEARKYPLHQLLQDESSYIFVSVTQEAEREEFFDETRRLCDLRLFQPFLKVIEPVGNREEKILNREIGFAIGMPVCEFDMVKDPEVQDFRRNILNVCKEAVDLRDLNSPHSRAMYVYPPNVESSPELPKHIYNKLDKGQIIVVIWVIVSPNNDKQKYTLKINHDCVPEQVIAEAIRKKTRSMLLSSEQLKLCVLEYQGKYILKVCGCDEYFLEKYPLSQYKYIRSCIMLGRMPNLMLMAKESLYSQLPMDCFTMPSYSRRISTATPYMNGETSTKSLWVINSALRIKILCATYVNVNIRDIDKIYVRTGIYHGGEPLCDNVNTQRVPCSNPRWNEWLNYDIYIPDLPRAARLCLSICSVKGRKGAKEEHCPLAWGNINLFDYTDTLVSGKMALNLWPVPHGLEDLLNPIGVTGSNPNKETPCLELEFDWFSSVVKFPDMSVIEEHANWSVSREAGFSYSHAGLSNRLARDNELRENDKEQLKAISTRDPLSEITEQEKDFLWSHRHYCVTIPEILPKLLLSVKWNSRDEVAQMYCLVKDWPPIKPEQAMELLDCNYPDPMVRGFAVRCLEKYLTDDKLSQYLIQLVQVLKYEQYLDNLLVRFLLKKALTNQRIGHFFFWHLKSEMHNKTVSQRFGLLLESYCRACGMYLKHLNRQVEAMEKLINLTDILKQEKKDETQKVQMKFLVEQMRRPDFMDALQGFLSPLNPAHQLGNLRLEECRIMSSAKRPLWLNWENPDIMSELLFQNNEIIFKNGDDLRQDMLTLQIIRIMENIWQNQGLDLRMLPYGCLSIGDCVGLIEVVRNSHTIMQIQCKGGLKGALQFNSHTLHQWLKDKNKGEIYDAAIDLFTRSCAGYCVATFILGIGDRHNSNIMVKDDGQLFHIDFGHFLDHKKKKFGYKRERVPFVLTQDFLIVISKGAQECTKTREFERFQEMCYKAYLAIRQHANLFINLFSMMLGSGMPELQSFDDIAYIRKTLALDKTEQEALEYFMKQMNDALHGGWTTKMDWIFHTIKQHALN
Chain of CSK (P41240 whole entry): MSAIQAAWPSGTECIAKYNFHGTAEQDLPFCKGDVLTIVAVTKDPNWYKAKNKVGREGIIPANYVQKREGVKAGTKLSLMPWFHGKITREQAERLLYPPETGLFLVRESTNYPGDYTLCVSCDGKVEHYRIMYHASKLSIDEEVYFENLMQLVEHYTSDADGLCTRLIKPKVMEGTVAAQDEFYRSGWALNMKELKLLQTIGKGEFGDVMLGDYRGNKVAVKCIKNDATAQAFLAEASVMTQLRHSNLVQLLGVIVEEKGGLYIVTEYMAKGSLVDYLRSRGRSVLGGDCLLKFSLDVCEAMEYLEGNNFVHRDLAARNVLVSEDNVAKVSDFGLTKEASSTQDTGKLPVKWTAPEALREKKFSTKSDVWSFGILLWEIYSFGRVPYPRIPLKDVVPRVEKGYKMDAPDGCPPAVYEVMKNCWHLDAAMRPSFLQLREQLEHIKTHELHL
T7 sequence (P27361 whole entry): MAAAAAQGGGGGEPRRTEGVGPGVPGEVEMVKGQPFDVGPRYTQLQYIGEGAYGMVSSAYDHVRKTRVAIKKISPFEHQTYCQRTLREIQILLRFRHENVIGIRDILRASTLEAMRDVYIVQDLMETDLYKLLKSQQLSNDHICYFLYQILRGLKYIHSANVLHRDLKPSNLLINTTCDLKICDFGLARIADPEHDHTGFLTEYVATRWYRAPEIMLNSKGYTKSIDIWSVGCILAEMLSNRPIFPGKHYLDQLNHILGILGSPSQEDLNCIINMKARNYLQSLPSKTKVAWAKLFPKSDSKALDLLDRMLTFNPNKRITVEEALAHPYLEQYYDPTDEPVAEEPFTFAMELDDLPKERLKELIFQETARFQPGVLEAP
Chain of PIK3CA (P42336 whole entry): as the sequence (P42336 whole entry H1047L) above, with L1047H counted along it

C=CC(=O)Nc1cc(-n2c(=O)ccc3cnc4ccc(-n5cccn5)cc4c32)ccc1C [CHMFL-BTK-11]
remaining binding at 1 µM (MRCKA): 100% | remaining binding at 1 µM (BRAF(V600E)): 100% | remaining binding at 1 µM (IKK-beta): 86% | remaining binding at 1 µM (DMPK2): 99% | remaining binding at 1 µM (AAK1): 62% | remaining binding at 1 µM (NEK9): 100% | remaining binding at 1 µM (PIK3CA(H1047L)): 85% | remaining binding at 1 µM (CLK3): 100% | remaining binding at 1 µM (PCTK3): 90% | remaining binding at 1 µM [1]: 100% | remaining binding at 1 µM (RIPK2): 100% | remaining binding at 1 µM (SIK): 100% | remaining binding at 1 µM (CSK): 100% | remaining binding at 1 µM (PRKG1): 100% | remaining binding at 1 µM (EPHA7): 97% | remaining binding at 1 µM (EGFR(L747-T751del,Sins)): 77% | remaining binding at 1 µM (ERK1): 100% | remaining binding at 1 µM (DDR1): 100% | remaining binding at 1 µM (PRKD3): 100% | remaining binding at 1 µM (ACVR2A): 100% | remaining binding at 1 µM (RIOK2): 87% | remaining binding at 1 µM (PRKCI): 69% | remaining binding at 1 µM (PIK3CA): 100% | remaining binding at 1 µM (HIPK1): 79% | remaining binding at 1 µM (KIT(V559D,V654A)): 100%
